# Source: patent US20240376076A1, “INHIBITORS TARGETING UBIQUITIN SPECIFIC PROTEASE 7 (USP7)” (Dana-Farber Cancer Institute, Inc., priority 2021, published 2024)
# Where a name gives a salt, the structure may show the parent alone.
# Target: T1, USP7, Active human recombinant protein (Homo sapiens, UniProt Q93009)
# T1 construct: purchased CP Lot; 20200225001
# Experiment: USP7 assay (Ubiquitin-Rhodamine 110 enzymatic assay)
# Assay type: biochemical
# Conditions: read-out: IC50
# Method: Enzymatic Assays with Exemplary USP7 Irreversible Inhibitors
# ND refers to not disclosed.
# USP7, Active human recombinant protein (CP, Lot. 20200225001), Ubiquitin-Rhodamine 110 (Rh110) (BostonBiochem, Cat. No. U-555), DMSO (Sigma, Cat. N34869), DTT (Sangon Biotech, Cat. No. A620058-0005), […] Tris pH 8.0 (Sigma, Cat. No. T2694-1L), Tween-20 (Sigma, Cat. No. P2287-100ML), EDTA (Invitrogen, Cat. No. 15575020, BSA (Sigma, Cat. No. B2064-100G), 384-well assay plate (Corning, Cat. No. 3573), Echo Qualified 384-Well Polypropylene Microplate 2.0, Clear, Flat Bottom (LABCYTE, Cat. No. 001-14555).
# Dilute the compounds to 400× of the final desired highest inhibitor concentration in reaction by 100% DMSO. For all compounds, transfer the compounds to one well in a 384-well Echo plate and serially dilute the compound by 3-fold dilution of 100% DMSO in the next well and so forth for a total of 10 concentrations by Precision. Add 30 μL of 100% DMSO to two empty wells for no compound control and no enzyme control in the same 384-well Echo plate. Make the plate as a source plate.
# For USP7 assay, transfer 50 nL of each well from the source plate to a 384-well assay plate (OptiPlate TM-384 F black assay plates) by Echo 550 Liquid Handler.
# Added appropriate amount of USP7 in 1× assay Buffer to prepare 2× enzyme solution (USP7 final concentration: 0.05 nM). Added appropriate amount of Ubiquitin-Rhodamine 110 in 1× assay Buffer to prepare 2× substrate solution (Ubiquitin-Rhodamine 110 final concentration: 190 nM). Added 10 μL of 2× enzyme solution to each reaction well of the 384-well assay plate, except for control wells without enzyme (add 10 μL of 1× Assay Buffer instead as for low control). […] Transferred 2× substrate solution to the assay plate. Added 10 μL of 2× substrate solution to each well of the 384-well assay plate to start reaction. Centrifuged at 1000 rpm for 1 min. Read the plate kinetically on SpectraMax Paradigm for 20 min with excitation at 485 nm and emission at 535 nm. Copied raw data (slope) from Reader to obtain inhibition values in Excel using equation (1): […]
# Max signal was obtained from the action of Enzyme and Substrate. Min signal was obtained from the Substrate only. To fit the data in XLFit excel add-in version 5.4.0.8 to obtain IC50 values used equation (2): […]
# Y is % inhibition and X is compound concentration.
# T1 sequence (Q93009 whole entry): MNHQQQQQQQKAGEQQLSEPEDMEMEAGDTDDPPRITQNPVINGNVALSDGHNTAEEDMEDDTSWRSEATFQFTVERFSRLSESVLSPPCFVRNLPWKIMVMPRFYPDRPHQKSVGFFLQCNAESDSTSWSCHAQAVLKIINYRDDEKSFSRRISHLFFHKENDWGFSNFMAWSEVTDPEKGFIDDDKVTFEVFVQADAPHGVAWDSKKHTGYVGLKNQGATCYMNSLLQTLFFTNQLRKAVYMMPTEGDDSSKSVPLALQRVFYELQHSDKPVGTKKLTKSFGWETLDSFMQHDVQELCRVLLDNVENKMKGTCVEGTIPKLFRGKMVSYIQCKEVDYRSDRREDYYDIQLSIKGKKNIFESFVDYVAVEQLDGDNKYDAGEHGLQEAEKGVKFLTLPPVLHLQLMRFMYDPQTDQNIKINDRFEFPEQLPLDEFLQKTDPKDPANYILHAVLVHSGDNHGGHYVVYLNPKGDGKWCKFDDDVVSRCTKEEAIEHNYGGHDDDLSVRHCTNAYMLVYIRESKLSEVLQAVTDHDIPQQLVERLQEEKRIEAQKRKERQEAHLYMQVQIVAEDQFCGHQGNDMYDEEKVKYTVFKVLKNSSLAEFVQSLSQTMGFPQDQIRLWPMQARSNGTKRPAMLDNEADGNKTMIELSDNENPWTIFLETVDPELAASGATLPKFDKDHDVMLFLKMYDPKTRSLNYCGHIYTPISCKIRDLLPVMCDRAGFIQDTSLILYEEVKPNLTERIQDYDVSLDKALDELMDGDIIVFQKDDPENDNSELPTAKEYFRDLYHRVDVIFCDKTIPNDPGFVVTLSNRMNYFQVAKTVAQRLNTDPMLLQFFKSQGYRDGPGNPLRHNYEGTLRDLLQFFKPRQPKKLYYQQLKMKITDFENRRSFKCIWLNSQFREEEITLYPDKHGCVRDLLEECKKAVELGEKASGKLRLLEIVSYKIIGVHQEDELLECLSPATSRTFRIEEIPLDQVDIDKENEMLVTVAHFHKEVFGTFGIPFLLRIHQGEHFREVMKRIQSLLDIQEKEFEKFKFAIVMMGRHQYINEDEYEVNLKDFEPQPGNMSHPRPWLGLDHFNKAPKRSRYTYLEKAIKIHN
row,IC50 [nM],Structure (SMILES)
1,100 to 1000,"CN1CCN(CCC(=O)Nc2ccc3c(=O)n(CC4(O)CCN(C(=O)C(CCCNC(=O)c5ccc6c(Cl)cc(-c7cccc(C#N)c7)nc6c5)Cc5ccccc5)CC4)cnc3c2)CC1 (centres unmarked) [Compound 16, N-(4-benzyl-5-(4-hydroxy-4-((7-(3-(4-methylpiperazin-1-yl)propanamido)-4-oxoquinazolin-3(4H)-yl)methyl)piperidin-1-yl)-5-oxopentyl)-4-chloro-2-(3-cyanophenyl)quinoline-7-carboxamide]"
2,20 to 100,"CN1CCN(CCC(=O)Nc2ccc3c(=O)n(CC4(O)CCN(C(=O)C(CCCNC(=O)c5ccc6c(Cl)cc(-c7cccc(CN)c7)nc6c5)Cc5ccccc5)CC4)cnc3c2)CC1 (centres unmarked) [Compound 17, 2-(3-(aminomethyl)phenyl)-N-(4-benzyl-5-(4-hydroxy-4-((7-(3-(4-methylpiperazin-1-yl)propanamido)-4-oxoquinazolin-3(4H)-yl)methyl)piperidin-1-yl)-5-oxopentyl)-4-chloroquinoline-7-carboxamide hydrochloride]"
3,> 1000,CN1CCN(CCC(=O)Nc2ccc3c(=O)n(CC4(O)CCN(C(=O)[C@H](CCCNC(=O)c5ccc6c(Cl)cc(-c7cnn(CC(F)(F)F)c7)nc6c5)Cc5ccccc5)CC4)cnc3c2)CC1 [Compound 19]
4,> 1000,CCS(=O)(=O)Nc1ccccc1-c1ccc(C(=O)N2CCC(O)(Cn3cnc4cc(NC(=O)CCN5CCN(C)CC5)ccc4c3=O)CC2)cc1 [Compound 25]
5,> 1000,"C=CS(=O)(=O)NCc1cccc(C(=O)N2CCC(O)(Cn3cnc4cc(NC(=O)CCN5CCN(C)CC5)ccc4c3=O)CC2)c1 [Compound 26, N-(3-((4-hydroxy-1-(3-(vinylsulfonamidomethyl)benzoyl)piperidin-4-yl)methyl)-4-oxo-3,4-dihydroquinazolin-7-yl)-3-(4-methylpiperazin-1-yl)propanamide]"
6,> 1000,CN1CCN(CCn2ncc3ncn(CC4(O)CCN(C(=O)C(CCCNC(=O)c5ccc6c(Cl)ccnc6c5)Cc5ccccc5)CC4)c(=O)c32)CC1 (centres unmarked) [Compound 28]
7,> 1000,"CN(C)CC(=O)Nc1ccc2c(=O)n(CC3(O)CCN(C(=O)[C@H]4CC[C@@H](NC(=O)c5ccc6c(Cl)ccnc6c5)CC4)CC3)cnc2c1 [Compound 34, 4-chloro-N-((1s,4s)-4-(4-((7-(2-(dimethylamino)acetamido)-4-oxoquinazolin-3(4H)-yl)methyl)-4-hydroxypiperidine-1-carbonyl)cyclohexyl)quinoline-7-carboxamide]"
8,> 1000,"CN(C)CC(=O)Nc1ccc2c(=O)n(CC3(O)CCN(C(=O)[C@H]4CC[C@H](NC(=O)c5ccc6c(Cl)ccnc6c5)CC4)CC3)cnc2c1 [Compound 35, 4-chloro-N-((1R,4R)-4-(4-((7-(2-(dimethylamino)acetamido)-4-oxoquinazolin-3(4H)-yl)methyl)-4-hydroxypiperidine-1-carbonyl)cyclohexyl)quinoline-7-carboxamide]"
9,> 1000,"CN(C)CC(=O)Nc1ccc2c(=O)n(CC3(O)CCN(C(=O)C4CCCC(NC(=O)c5ccc6c(Cl)ccnc6c5)C4)CC3)cnc2c1 (centres unmarked) [Compound 36, 4-chloro-N-(3-(4-((7-(2-(dimethylamino)acetamido)-4-oxoquinazolin-3(4H)-yl)methyl)-4-hydroxypiperidine-1-carbonyl)cyclohexyl)quinoline-7-carboxamide]"
10,> 1000,"Cn1c(=O)n(CC2(O)CCN(C(=O)C(CCCNC(=O)c3ccc4c(Cl)ccnc4c3)Cc3ccccc3)CC2)c2cnccc21 (centres unmarked) [Compound 37, N-(4-benzyl-5-(4-hydroxy-4-((1-methyl-2-oxo-1H-imidazo[4,5-c]pyridin-3(2H)-yl)methyl)piperidin-1-yl)-5-oxopentyl)-4-chloroquinoline-7-carboxamide]"
11,> 1000,"CN1CCN(CCOc2ccc3ncn(CC4(O)CCN(C(=O)C(CCCNC(=O)c5ccc6c(Cl)ccnc6c5)Cc5ccccc5)CC4)c(=O)c3c2)CC1 (centres unmarked) [Compound 38, N-(4-benzyl-5-(4-hydroxy-4-((6-(2-(4-methylpiperazin-1-yl)ethoxy)-4-oxoquinazolin-3(4H)-yl)methyl)piperidin-1-yl)-5-oxopentyl)-4-chloroquinoline-7-carboxamide]"
12,> 1000,"CN(C)CCOc1ccc2ncn(CC3(O)CCN(C(=O)C(CCCNC(=O)c4ccc5c(Cl)ccnc5c4)Cc4ccccc4)CC3)c(=O)c2c1 (centres unmarked) [Compound 39, N-(4-benzyl-5-(4-((6-(2-(dimethylamino)ethoxy)-4-oxoquinazolin-3(4H)-yl)methyl)-4-hydroxypiperidin-1-yl)-5-oxopentyl)-4-chloroquinoline-7-carboxamide]"
13,< 20,CN(C)CCC(=O)Nc1ccc2c(=O)n(CC3(O)CCN(C(=O)[C@@H](CCCNC(=O)c4ccc5c(Cl)c6c(nc5c4)CN(C)CC6)Cc4ccccc4)CC3)cnc2c1 [Compound 41]
14,100 to 1000,CN(C)CCC(=O)Nc1ccc2c(=O)n(CC3(O)CCN(C(=O)[C@H](CCCNC(=O)c4ccc5c(Cl)c6c(nc5c4)CN(C)CC6)Cc4ccccc4)CC3)cnc2c1 [Compound 42]
15,> 1000,"Cc1cc(Cl)nc2c(C(=O)NCCCC(Cc3ccccc3)C(=O)N3CCC(O)(Cn4cnc5cc(NC(=O)CCN(C)C)ccc5c4=O)CC3)ccn12 (centres unmarked) [Compound 44, N-(4-benzyl-5-(4-((7-(3-(dimethylamino)propanamido)-4-oxoquinazolin-3(4H)-yl)methyl)-4-hydroxypiperidin-1-yl)-5-oxopentyl)-2-chloro-4-methylpyrrolo[1,2-a]pyrimidine-8-carboxamide]"
16,> 1000,"Cc1cc(Cl)n2cc(C(=O)NCCCC(Cc3ccccc3)C(=O)N3CCC(O)(Cn4cnc5cc(NC(=O)CCN(C)C)ccc5c4=O)CC3)cc2n1 (centres unmarked) [Compound 45, N-(4-benzyl-5-(4-((7-(3-(dimethylamino)propanamido)-4-oxoquinazolin-3(4H)-yl)methyl)-4-hydroxypiperidin-1-yl)-5-oxopentyl)-4-chloro-2-methylpyrrolo[1,2-a]pyrimidine-7-carboxamide]"
17,> 1000,CN(C)CCC(=O)Nc1ccc2c(=O)n(CC3(O)CCN(C(=O)C(CCCNc4cccc(-c5cc(Cl)ccn5)c4)Cc4ccccc4)CC3)cnc2c1 (centres unmarked) [Compound 46]
18,> 1000,"CN(C)CCC(=O)Nc1ccc2c(=O)n(CC3(O)CCN(C(=O)C(CCCNC(=O)c4cc5c(Cl)ccnc5[nH]4)Cc4ccccc4)CC3)cnc2c1 (centres unmarked) [Compound 48, N-(4-benzyl-5-(4-((7-(3-(dimethylamino)propanamido)-4-oxoquinazolin-3(4H)-yl)methyl)-4-hydroxypiperidin-1-yl)-5-oxopentyl)-4-chloro-1H-pyrrolo[2,3-b]pyridine-2-carboxamide]"
19,> 1000,"Cc1cc(Cl)c2ccc(C(=O)NCCC[C@H](Cc3ccccc3)C(=O)N3CCC(O)(Cn4cnc5cc(NC(=O)CCN(C)C)ccc5c4=O)CC3)cc2n1 [Compound 50, (R)—N-(4-benzyl-5-(4-((7-(3-(dimethylamino)propanamido)-4-oxoquinazolin-3(4H)-yl)methyl)-4-hydroxypiperidin-1-yl)-5-oxopentyl)-4-chloro-2-methylquinoline-7-carboxamide]"
20,20 to 100,"Cc1cc(Cl)c2ccc(C(=O)NCCC[C@@H](Cc3ccccc3)C(=O)N3CCC(O)(Cn4cnc5cc(NC(=O)CCN(C)C)ccc5c4=O)CC3)cc2n1 [Compound 51, (S)—N-(4-benzyl-5-(4-((7-(3-(dimethylamino)propanamido)-4-oxoquinazolin-3(4H)-yl)methyl)-4-hydroxypiperidin-1-yl)-5-oxopentyl)-4-chloro-2-methylquinoline-7-carboxamide]"
